Consider 1 compound from US20200108115A1, “MEDICINAL COMPOSITION DERIVED FROM MULTIPLE PLANT SOURCES FOR GASTROINTESTINAL DISORDER” (priority 2017, published 2020).

In general, MIC refers to the lowest concentration that inhibits growth of the organism.

SMILES strings stand for the structures. In brackets after ≈: the same amount, converted by molar mass.

Common to all, as to experiment: MIC by resazurin micro-titre method
What all share (type): cell-based
(In general: The colour change of resazurin is a common sign of viable cells or microbes.)

The subject of assay [1] is Salmonella typhimurium (P3). The conditions noted are these: Salmonella enterica, 37° C., 18-24 h.
Assay [2] concerns Klebsiella oxytoca (P4). The conditions noted are these: 37° C., 18-24 h.
Assay [3] has as its system Vibrio cholera (P5). The conditions noted are these: Vibrio cholerae, read-out: MIC value.
Assay [4] deals with Helicobacter pylori (P6). The following applies: read-out: MIC value.
Assay [5] has as its system Shigella dysenteriae (P7). The conditions noted are these: read-out: MIC value.
Assay [6] relates to Streptococcus thermophilus (BB2). The following applies: beneficial, 37° C., 18-24 h.
In assay [7] the test system is Bacteroides fragilis (BB3). The conditions noted are these: beneficial, 37° C., 18-24 h.
Assay [8] has as its system Faecalibacterium prausnitzii (BB5). The following applies: beneficial, 37° C., 18-24 h.

On to `O=C(O)c1cn(C2CC2)c2cc(N3CCNCC3)c(F)cc2c1=O` [Ciprofloxacin, ciprofloxacin], for which the minimal inhibitory concentration (MIC) in assay [1] is 1000 µg/mL (≈ 3020 µM); in assay [2], 500 µg/mL (≈ 1510 µM); in assay [3] it was 125 µg/mL (≈ 377 µM); in assay [4], 15.1 µg/mL (≈ 45.6 µM); in assay [5] it was 15.1 µg/mL (≈ 45.6 µM); in assay [6], 31.2 µg/mL (≈ 94.3 µM). Moreover, the figures for the minimal inhibitory concentration (MIC) in assay [7] and in assay [8] were 62.5 µg/mL (≈ 189 µM) and 31.2 µg/mL (≈ 94.3 µM), respectively.
